Reference: patent publication US7868135B2, “Compositions of lipopeptide antibiotic derivatives and methods of use thereof” (priority 2003, dated 2011)
Starred links: 1 amine or outer side, 2 acyl side, 3 side chain; linkers in the order of their positions; H or OH if unused. Positions of bridges follow the written chain, without caps; N, C: chain ends. Non-standard residues stand in square brackets, D forms with d. Residues, ends and D or L forms follow the SMILES beside them. Groups on a side chain read outwards from the residue. ξ: configuration not given here. *: point of attachment. Hexadecanesulfonyl = CCCCCCCCCCCCCCCCS(=O)(=O)*; X18 = CC(NC(=O)/C=C/c1ccco1)C(N[*:1])C(=O)[*:2]; Propanoyl(3-SO2Ph) = O=C(CCS(=O)(=O)c1ccccc1)*; ξAbu(βξ-NH2) = CC(N[*:3])C(N[*:1])C(=O)[*:2]; X23 = CC(NCc1ccc(O)cc1)C(N[*:1])C(=O)[*:2]; Pentadecanoyl = CCCCCCCCCCCCCCC(=O)*; ξAsp(βξ-Me) = CC(C(=O)O)C(N)C(=O)O; Palmitoyl = CCCCCCCCCCCCCCCC(=O)*; ξAbu(3ξ-NH2) = CC(N)C(N)C(=O)O; Undecanoyl = CCCCCCCCCCC(=O)*; Dab = NCC[C@H](N)C(=O)O; Pip = O=C(O)[CH]1CCCCN1; ξD = NC(CC(=O)O)C(=O)O; ξPip = O=C(O)C1CCCCN1; ξV = CC(C)C(N)C(=O)O; ξP = O=C(O)C1CCCN1; GABA = NCCCC(=O)O; OtBu = CC(C)(C)O*

Each molecule was assayed on Staphylococcus aureus (MSSA). Details: 24 h.
In short: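 Broth microdilution MIC per NCCLS M7-A6 with doubling serial dilutions, in cation-adjusted Mueller-Hinton broth supplemented with 0.625 mM calcium.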
Molecule `CCCCCCCCCCC(=O)N[C@@H](CC(=O)OC(C)(C)C)C(=O)NC(CC(=O)O)C(=O)NC1C(=O)N2CCCCC2C(=O)NC(C(C)C(=O)O)C(=O)NC(CC(=O)O)C(=O)NCC(=O)NC(CC(=O)O)C(=O)NCC(=O)NC(C(C)N)C(=O)NC(C(C)C)C(=O)N2CCCC2C(=O)NC1C` (stereo partly drawn) [Compound 314, C11-(Asp-(OtBu))-Amphomycin] (Undecanoyl-D(OtBu)[ξD][ξAbu(βξ-NH2)][ξPip][ξAsp(βξ-Me)][ξD]G[ξD]G[ξAbu(3ξ-NH2)][ξV][ξP]; lactam 3-C) has an MIC of 8 µg/mL.
`CCCCCCCCCCCCCCC(=O)NC(CC(=O)O)C(=O)NC1C(=O)N2CCCCC2C(=O)NC(C(C)C(=O)O)C(=O)NC(CC(=O)O)C(=O)NCC(=O)NC(CC(=O)O)C(=O)NCC(=O)NC(C(C)NC(=O)CCS(=O)(=O)c2ccccc2)C(=O)NC(C(C)C)C(=O)N2CCCC2C(=O)NC1C` (stereo not drawn) [Compound 350, C15-Amphomycin-9-(3-(Benzenesulfonyl)Propionoyl)] (Pentadecanoyl-D[ξAbu(βξ-NH2)][Pip][ξAsp(βξ-Me)]DGDG[ξAbu(βξ-NH2)](Propanoyl(3-SO2Ph))VP; lactam 2-C; configuration not given here) was tested, and the MIC was 64 µg/mL.
`CCCCCCCCCCCCCCC(=O)NC(CC(=O)O)C(=O)NC1C(=O)N2CCCCC2C(=O)NC(C(C)C(=O)O)C(=O)NC(CC(=O)O)C(=O)NCC(=O)NC(CC(=O)O)C(=O)NCC(=O)NC(C(C)NC(=O)CCNC(=O)[C@@H](N)CCCCN)C(=O)NC(C(C)C)C(=O)N2CCCC2C(=O)NC1C` (stereo partly drawn) [Compound 155, C15-Amphomycin-9-(β-Ala)-Lys] showed an MIC of 8 µg/mL.
`CCCCCCCCCCCCCCNC(=O)NCCC(=O)NC(CC(=O)O)C(=O)NC1C(=O)N2CCCCC2C(=O)NC(C(C)C(=O)O)C(=O)NC(CC(=O)O)C(=O)NCC(=O)NC(CC(=O)O)C(=O)NCC(=O)NC(C(C)N)C(=O)NC(C(C)C)C(=O)N2CCCC2C(=O)NC1C` (stereo not drawn) [Compound 295, CH3—(CH2)13—NH—C(═O)-(β-Ala)-Amphomycin] gave an MIC of 0.5 µg/mL.
Work on `CCCCCCCCCCCCCCC(=O)NC(CC(=O)O)C(=O)NC1C(=O)N2CCCCC2C(=O)NC(C(C)C(=O)O)C(=O)NC(CC(=O)O)C(=O)NCC(=O)NC(CC(=O)O)C(=O)NCC(=O)NC(C(C)NC(=O)[C@@H](N)CCCCN)C(=O)NC(C(C)C)C(=O)N2CCCC2C(=O)NC1C` (single isomer, unassigned) [Compound 129, C15-Amphomycin-9-Lys] yielded an MIC of 1 µg/mL.
Work on `CCCCCCCCCCCCCCCCS(=O)(=O)N[C@@H](Cc1ccccc1)C(=O)NC(CC(=O)O)C(=O)NC1C(=O)N2CCCCC2C(=O)NC(C(C)C(=O)O)C(=O)NC(CC(=O)O)C(=O)NCC(=O)NC(CC(=O)O)C(=O)NCC(=O)NC(C(C)N)C(=O)NC(C(C)C)C(=O)N2CCCC2C(=O)NC1C` (stereo partly drawn) [Compound 270, CH3—(CH2)15—SO2-Phe-Amphomycin] (Hexadecanesulfonyl-F[ξD][ξAbu(βξ-NH2)][ξPip][ξAsp(βξ-Me)][ξD]G[ξD]G[ξAbu(3ξ-NH2)][ξV][ξP]; lactam 3-C) yielded an MIC of 16 to 32 µg/mL.
`CCCCCCCCCCCCCCC(=O)NC(CC(=O)O)C(=O)NC1C(=O)N2CCCCC2C(=O)NC(C(C)C(=O)O)C(=O)NC(CC(=O)O)C(=O)NCC(=O)NC(CC(=O)O)C(=O)NCC(=O)NC(C(C)NC(=O)CCCCCCCCCCN)C(=O)NC(C(C)C)C(=O)N2CCCC2C(=O)NC1C` (stereo not shown) [Compound 34, C15-Amphomycin-9-C(═O)—(CH2)10—NH2] was tested, and the MIC was 32 to 64 µg/mL.
In the case of `CCCCCCCCCCCCCCC(=O)NC(CC(=O)O)C(=O)NC1C(=O)N2CCCCC2C(=O)NC(C(C)C(=O)O)C(=O)NC(CC(=O)O)C(=O)NCC(=O)NC(CC(=O)O)C(=O)NCC(=O)NC(C(C)NC(=O)CCC)C(=O)NC(C(C)C)C(=O)N2CCCC2C(=O)NC1C` (stereo not shown) [Compound 207, C15-Amphomycin-9-C4], the MIC is reported as 16 µg/mL.
In the case of `CCCCCCCCCCCCCCC(=O)N[C@H](CC(=O)OC)C(=O)NC(CC(=O)O)C(=O)NC1C(=O)N2CCCCC2C(=O)NC(C(C)C(=O)O)C(=O)NC(CC(=O)O)C(=O)NCC(=O)NC(CC(=O)O)C(=O)NCC(=O)NC(C(C)N)C(=O)NC(C(C)C)C(=O)N2CCCC2C(=O)NC1C` (stereo partly drawn) [Compound 317, C15-(Asp-(Ome))-Amphomycin] (Pentadecanoyl-[dD](OMe)[ξD][ξAbu(βξ-NH2)][ξPip][ξAsp(βξ-Me)][ξD]G[ξD]G[ξAbu(3ξ-NH2)][ξV][ξP]; lactam 3-C), the MIC is reported as 1 µg/mL.
For `CCCCCCCCCCCCCCC(=O)NC(CC(=O)O)C(=O)NC1C(=O)N2CCCCC2C(=O)NC(C(C)C(=O)O)C(=O)NC(CC(=O)O)C(=O)NCC(=O)NC(CC(=O)O)C(=O)NCC(=O)NC(C(C)NCc2ccc(O)cc2)C(=O)NC(C(C)C)C(=O)N2CCCC2C(=O)NC1C` (stereo not drawn) [Compound 266, C15-Amphomycin-9-(4-Hydroxybenzyl)] (Pentadecanoyl-D[ξAbu(βξ-NH2)][Pip][ξAsp(βξ-Me)]DGDG[X23]VP; lactam 2-C; configuration not given here), the MIC was 8 to 16 µg/mL.
Work on `CCCCCCCCCCCCCCCC(=O)NCC(=O)NC(CC(=O)O)C(=O)NC1C(=O)N2CCCCC2C(=O)NC(C(C)C(=O)O)C(=O)NC(CC(=O)O)C(=O)NCC(=O)NC(CC(=O)O)C(=O)NCC(=O)NC(C(C)N)C(=O)NC(C(C)C)C(=O)N2CCCC2C(=O)NC1C` (stereo not drawn) [Compound 106, C16-Gly-Amphomycin] (Palmitoyl-GD[ξAbu(βξ-NH2)][Pip][ξAsp(βξ-Me)]DGDG[ξAbu(3ξ-NH2)]VP; lactam 3-C; configuration not given here) yielded an MIC of 0.5 µg/mL.
`CCCCCCCCCCCCCCC(=O)NC(CC(=O)O)C(=O)NC1C(=O)N2CCCCC2C(=O)NC(C(C)C(=O)O)C(=O)NC(CC(=O)O)C(=O)NCC(=O)NC(CC(=O)O)C(=O)NCC(=O)NC(C(C)NC(=O)CCNC(=O)[C@@H](N)C(C)C)C(=O)NC(C(C)C)C(=O)N2CCCC2C(=O)NC1C` (stereo partly drawn) [Compound 174, C15-Amphomycin-9-(β-Ala)-Val] was tested, and the MIC was 2 µg/mL.
For `CCCCCCCCCCCCCCC(=O)NC(CC(=O)O)C(=O)NC1C(=O)N2CCCCC2C(=O)NC(C(C)C(=O)O)C(=O)NC(CC(=O)O)C(=O)NCC(=O)NC(CC(=O)O)C(=O)NCC(=O)NC(C(C)NC(=O)CCCCCN)C(=O)NC(C(C)C)C(=O)N2CCCC2C(=O)NC1C` (stereo not shown) [Compound 25, C15-Amphomycin-9-Ahx], the MIC was 1 µg/mL.
`CCCCCCCCCCCCCCC(=O)NC(CC(=O)O)C(=O)NC1C(=O)N2CCCCC2C(=O)NC(C(C)C(=O)O)C(=O)NC(CC(=O)O)C(=O)NCC(=O)NC(CC(=O)O)C(=O)NCC(=O)NC(C(C)NC(=O)C(C)(C)N)C(=O)NC(C(C)C)C(=O)N2CCCC2C(=O)NC1C` (stereo not shown) [Compound 161, C15-Amphomycin-9-Aib] was tested, and the MIC was 8 µg/mL.
In the case of `CCCCCCCCOc1ccc(C(=O)NC(CC(=O)O)C(=O)NC2C(=O)N3CCCCC3C(=O)NC(C(C)C(=O)O)C(=O)NC(CC(=O)O)C(=O)NCC(=O)NC(CC(=O)O)C(=O)NCC(=O)NC(C(C)N)C(=O)NC(C(C)C)C(=O)N3CCCC3C(=O)NC2C)cc1` (stereo not shown) [Compound 19, CH3—(CH2)7—O-p-Ph-C(═O)-Amphomycin], the MIC is reported as 0.5 µg/mL.
`CCCCCCCCCCCCCCC(=O)NC(CC(=O)O)C(=O)NC1C(=O)N2CCCCC2C(=O)NC(C(C)C(=O)O)C(=O)NC(CC(=O)O)C(=O)NCC(=O)NC(CC(=O)O)C(=O)NCC(=O)NC(C(C)NC(=O)CNC(=O)CCCCC)C(=O)NC(C(C)C)C(=O)N2CCCC2C(=O)NC1C` (stereo not shown) [Compound 81, C15-Amphomycin-9-Gly-C6] was tested, and the MIC was 32 µg/mL.
For `CCCCCCCCCCC(=O)NC(CC(=O)O)C(=O)NC1C(=O)N2CCCCC2C(=O)NC(C(C)C(=O)O)C(=O)NC(CC(=O)O)C(=O)NCC(=O)NC(CC(=O)O)C(=O)NCC(=O)NC(C(C)N)C(=O)NC(C(C)C)C(=O)N2CCCC2C(=O)NC1C` (stereo not shown) [Compound 7, C11-Amphomycin], the MIC was 32 to 64 µg/mL.
Molecule `CCCCCCCCCCCCCCC(=O)NC(CC(=O)O)C(=O)NC1C(=O)N2CCCCC2C(=O)NC(C(C)C(=O)O)C(=O)NC(CC(=O)O)C(=O)NCC(=O)NC(CC(=O)O)C(=O)NCC(=O)NC(C(C)NC(=O)/C=C/c2ccco2)C(=O)NC(C(C)C)C(=O)N2CCCC2C(=O)NC1C` (stereo not drawn) [Compound 349, C15-Amphomycin-9-(3-Furan-2-yl-Acryloyl)] (Pentadecanoyl-D[ξAbu(βξ-NH2)][Pip][ξAsp(βξ-Me)]DGDG[X18]VP; lactam 2-C; configuration not given here) has an MIC of 64 µg/mL.
`CCCCCCCCCCCCCCC(=O)NC(CC(=O)O)C(=O)NC1C(=O)N2CCCCC2C(=O)NC(C(C)C(=O)O)C(=O)NC(CC(=O)O)C(=O)NCC(=O)NC(CC(=O)O)C(=O)NCC(=O)NC(C(C)NC(=O)CCCNC(=O)[C@@H](N)CCN)C(=O)NC(C(C)C)C(=O)N2CCCC2C(=O)NC1C` (stereo partly drawn) [Compound 159, C15-Amphomycin-9-GABA-gDab] (Pentadecanoyl-[ξD][ξAbu(βξ-NH2)][ξPip][ξAsp(βξ-Me)][ξD]G[ξD]G[ξAbu(βξ-NH2)]([GABA-Dab])[ξV][ξP]; lactam 2-C) was tested, and the MIC was 0.5 to 1 µg/mL.
`CCCCCCCCCCCCCCC(=O)NC(CC(=O)O)C(=O)NC1C(=O)N2CCCCC2C(=O)NC(C(C)C(=O)O)C(=O)NC(CC(=O)O)C(=O)NCC(=O)NC(CC(=O)O)C(=O)NCC(=O)NC(C(C)NC(=O)[C@@H](N)Cc2ccc(O)cc2)C(=O)NC(C(C)C)C(=O)N2CCCC2C(=O)NC1C` (stereo partly shown) [Compound 39, C15-Amphomycin-9-Tyr] showed an MIC of 32 to 64 µg/mL.

Same assay, conditions: S. aureus (MSSA), CAMHB supplemented with 0.625 mM calcium, 24 hours at about 37° C.; a range = compound tested multiple times
For `CCCCCCCCCCCCC(=O)NC(CC(=O)O)C(=O)NC1C(=O)N2CCCCC2C(=O)NC(C(C)C(=O)O)C(=O)NC(CC(=O)O)C(=O)NCC(=O)NC(CC(=O)O)C(=O)NCC(=O)NC(C(C)NC(=O)[C@@H](N)CN)C(=O)NC(C(C)C)C(=O)N2CCCC2C(=O)NC1C` (stereo partly shown) [Compound 136, C13-Amphomycin-9-Dap], the MIC was 136/4 μg/mL.
“β-Isomer of (8-Dodecyloxy-Quinoline-2-Carbonyl)-Amphomycin [Compound 340]” was tested, and the MIC was 4 µg/mL.
For `CCCCCCCCCC(=O)NC(CC(=O)O)C(=O)NC1C(=O)N2CCCCC2C(=O)NC(C(C)C(=O)O)C(=O)NC(CC(=O)O)C(=O)NCC(=O)NC(CC(=O)O)C(=O)NCC(=O)NC(C(C)NC(=O)CCN)C(=O)NC(C(C)C)C(=O)N2CCCC2C(=O)NC1C` (stereo not drawn) [Compound 76, C10-Amphomycin-9-(β-Ala)], the MIC was 76/16 μg/mL.
In the case of `CCCCCCCCCCCCCCC(=O)NC(CC(=O)O)C(=O)NC1C(=O)N2CCCCC2C(=O)NC(C(C)C(=O)O)C(=O)NC(CC(=O)O)C(=O)NCC(=O)NC(CC(=O)O)C(=O)NCC(=O)NC(C(C)NC(=O)CCCc2cc3ccc4cccc5ccc(c2)c3c45)C(=O)NC(C(C)C)C(=O)N2CCCC2C(=O)NC1C` (stereo not shown) [Compound 351, C15-Amphomycin-9-(4-(Pyren-2-yl)Butyroyl)], the MIC is reported as over 64 µg/mL.
C13-Amphomycin-9-gDab [Compound 135] was tested, and the MIC was 135/8 μg/mL.
